The test system of this assay is root-knot nematodes (Meloidogyne sp), some Pratylenchus sp. Briefly: Water screen, plant parasitic nematodes. It is filed as in vivo. Here is the method: 100 microliters containing nematodes were pipetted into 2.5 cm Petri dishes. The nematodes used were principally root-knot nematodes (Meloidogyne sp) but some initial observations were also made on some Pratylenchus sp. and free-living species (non-plant parasites). 900 microliters of Loquat extract, or 500 microliters of Loquat extract plus 400 microliters of water, were added to the nematodes to give concentrations of 90 or 50% of the original Loquat extract. Total added volume was therefore 1 ml.
Controls were nematodes from the same source placed in tap water.
Following application of the Loquat or amygdalin solution, observations were made after 10 minutes, the next day, and after 5 days.

The text below walks through data of patent publication US7442392B2, “Pesticides” (priority 2004, dated 2008).

For the molecule `N#C[C@H](O[C@@H]1O[C@H](CO[C@@H]2O[C@H](CO)[C@@H](O)[C@H](O)[C@H]2O)[C@@H](O)[C@H](O)[C@H]1O)c1ccccc1` [amygdalin], the Activity of nematodes entry reads like this: (10 minutes, both concentrations (70 mg or 400 mg in 50 ml water)) “still active”; (5 days later, both amygdalin treatments) “still active”; (next day, both amygdalin treatments) “active”. Where the note is “in vivo”, the “Activity of amygdalin itself (conclusion)” value is recorded as “not active per se”.
